We go through one compound from paper PMC12664493, “Asparagine endopeptidase (AEP) inhibitor formulation via zein-based nanoparticle improves the therapeutic efficacy toward Alzheimer's disease” (Neurotherapeutics, 2025).

Data set [1] can be described thus: PAMPA-BBB permeability assay. Format: in vitro ADME. The following applies: read-out: Permeability-PAMPA-BBB Pe. (In general: The PAMPA barrier holds no transporters, so it reflects passive diffusion.)
The target of data set [2] is T1, AEP (Rattus norvegicus, UniProt Q9R0J8).
T1 construct: endogenous in cells; host or cells: primary rat cortical neurons
T1 sequence (Q9R0J8 18-435): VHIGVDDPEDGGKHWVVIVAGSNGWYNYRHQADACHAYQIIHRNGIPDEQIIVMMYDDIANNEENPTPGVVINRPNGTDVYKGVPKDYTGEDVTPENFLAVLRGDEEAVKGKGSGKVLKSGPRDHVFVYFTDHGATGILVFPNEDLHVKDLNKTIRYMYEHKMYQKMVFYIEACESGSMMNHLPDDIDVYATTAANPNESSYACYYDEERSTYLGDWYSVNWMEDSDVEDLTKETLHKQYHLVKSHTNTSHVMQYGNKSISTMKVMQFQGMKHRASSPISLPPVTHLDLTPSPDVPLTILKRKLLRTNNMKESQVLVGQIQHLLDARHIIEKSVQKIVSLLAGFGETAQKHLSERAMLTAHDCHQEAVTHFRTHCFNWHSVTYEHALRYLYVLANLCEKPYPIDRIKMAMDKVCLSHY
Nature of the data set: AEP inhibition in cultured primary neurons. It is filed as cell-based.

Data set [3] in a line: Plasma and brain concentrations after acute oral treatment of 3xTg mice. The note with it: both sexes, mouse. It is filed as in vivo. From the text: Blood and brain tissues were collected at 0, 0.08, 0.25, 0.5, 1, 2, 4, and 8 h post-administration.
The target of data set [4] is T1, AEP. Nature of the data set: Titration assay of Aβ42-induced AEP activation in primary neurons (immunoblotting). It is filed as cell-based. The note with it: 2 μM pre-aggregated Aβ42, 24 h. (In general: Immunoblotting shows a protein as a band on a membrane.)
Data set [5] deals with 3xTg mice. Nature of the data set: Y-maze test in 3xTg mice. It is filed as in vivo, mouse. The following applies: 7.5 mg/kg P.O. daily, one month. From the text:
Blood and brain tissues were collected at 0, 0.08, 0.25, 0.5, 1, 2, 4, and 8 h post-administration. For acute pharmacodynamic (PD) assessments, male and female 3xTg mice received oral doses of NP-11a-isopropyl at 7.5 mg/kg or 15 mg/kg, and blood and brain samples were collected 2 h after treatment.
The Y-maze test was employed to evaluate spatial working memory and spontaneous alternation behavior, a measure of natural exploratory pattern integrity. The apparatus comprised three symmetrical opaque arms (A, B, C; 30 cm length × 8 cm width × 15 cm height) intersecting at 120° angles to form a Y-shaped configuration. Mice were habituated to the maze during a 5-min acclimatization period to minimize novelty-induced anxiety. Following habituation, spontaneous exploration was recorded for 8 min using an overhead camera, with all trials conducted under consistent low-light conditions to reduce environmental stress. EthoVision XT 12 software (Noldus, Wageningen, The Netherlands) quantified total arm entries, entry sequences, and alternation patterns (consecutive entries into three distinct arms without repetition). The maze was thoroughly cleaned with 70 % ethanol between trials to eliminate olfactory cues.

In data set [6] the test system is Aβ42. The data set can be described thus: Aβ ELISA of brain tissue of 3xTg mice. Format: in vivo, mouse. The note with it: 7.5 mg/kg P.O. daily, one month. (In general: An ELISA detects its analyte on a solid surface through an enzyme-linked reagent.)
A short description of data set [7]: Solubility (pH 7.4, PBS). It is filed as physicochemical.
Data set [8] concerns the target T2, P-glycoprotein (MDR1) (Homo sapiens, UniProt P08183).
T2 construct: expressed in transfected cells; host or cells: MDCKII
Nature of the data set: MDR1-MDCKII permeability assay (P-glycoprotein efflux). It is filed as in vitro ADME. The note with it: dog, MDCK-MDR1.

Data set [9] can be described thus: Stability in human hepatocytes. It is filed as in vitro ADME.

Structures are written as SMILES. Read-outs that look alike come from different tables or passages of the source.

T2 sequence (P08183 whole entry): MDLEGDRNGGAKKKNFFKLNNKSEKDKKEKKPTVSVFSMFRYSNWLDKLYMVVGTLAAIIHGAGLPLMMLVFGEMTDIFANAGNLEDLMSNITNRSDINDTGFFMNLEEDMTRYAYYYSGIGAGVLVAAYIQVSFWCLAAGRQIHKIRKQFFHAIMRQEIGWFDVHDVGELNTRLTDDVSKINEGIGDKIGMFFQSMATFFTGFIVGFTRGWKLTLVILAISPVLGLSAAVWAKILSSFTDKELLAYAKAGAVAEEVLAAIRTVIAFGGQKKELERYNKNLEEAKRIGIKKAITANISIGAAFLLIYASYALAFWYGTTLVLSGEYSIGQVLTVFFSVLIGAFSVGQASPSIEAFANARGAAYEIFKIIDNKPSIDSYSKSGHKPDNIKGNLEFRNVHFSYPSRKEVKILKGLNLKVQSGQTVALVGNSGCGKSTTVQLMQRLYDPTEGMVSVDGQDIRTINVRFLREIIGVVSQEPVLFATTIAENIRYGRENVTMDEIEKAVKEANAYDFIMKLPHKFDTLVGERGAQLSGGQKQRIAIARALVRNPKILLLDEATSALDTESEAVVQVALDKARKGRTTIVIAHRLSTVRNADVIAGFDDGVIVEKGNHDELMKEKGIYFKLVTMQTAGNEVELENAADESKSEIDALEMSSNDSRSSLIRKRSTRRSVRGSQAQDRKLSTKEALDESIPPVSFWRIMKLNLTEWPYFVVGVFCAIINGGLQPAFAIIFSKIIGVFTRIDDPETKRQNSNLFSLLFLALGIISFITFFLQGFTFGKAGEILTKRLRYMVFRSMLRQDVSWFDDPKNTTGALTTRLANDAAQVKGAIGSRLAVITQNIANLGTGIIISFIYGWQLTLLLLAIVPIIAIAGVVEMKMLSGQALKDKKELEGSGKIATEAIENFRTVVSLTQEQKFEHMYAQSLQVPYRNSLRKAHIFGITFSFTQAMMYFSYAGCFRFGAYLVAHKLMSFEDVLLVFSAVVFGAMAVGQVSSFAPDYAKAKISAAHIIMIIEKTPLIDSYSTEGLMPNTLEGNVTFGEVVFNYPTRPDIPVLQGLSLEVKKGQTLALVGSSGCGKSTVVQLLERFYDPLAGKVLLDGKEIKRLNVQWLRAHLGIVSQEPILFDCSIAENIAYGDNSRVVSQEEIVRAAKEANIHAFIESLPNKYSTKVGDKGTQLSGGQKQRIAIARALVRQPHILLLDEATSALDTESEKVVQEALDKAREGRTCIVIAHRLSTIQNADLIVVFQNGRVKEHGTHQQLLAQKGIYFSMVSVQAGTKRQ

With `CC(C)Nc1nnc(Nc2cc(CO)c(N3CCOCC3)c3nonc23)s1` [11a-isopropyl], in [1], the Papp turned out to be 8.4 ×10⁻⁶ cm/s. For the same compound, the half-maximal inhibitory concentration (IC50) (as a rule, the concentration at which inhibition is half-maximal) in data set [2] was 63 nM. In addition, the concentration at 2 h came out at 14.4 ng/mL in [3] (brain, 7.5 mg/kg, 11a-isopropyl level in the brain, P.O. 7.5 mg/kg); 14.4 ng/g in data set [3] (brain, 7.5 mg/kg, P.O. 7.5 mg/kg, read-out: Concentration in brain, Brain Mean); 14.4 ng/g in [3] (brain, 7.5 mg/kg, P.O. 7.5 mg/kg, read-out: Concentration in brain, Brain Sample (single animal)); 39.3 ng/g in [3] (brain, 15 mg/kg, P.O. 15 mg/kg, read-out: Concentration in brain, Brain Sample (single animal)); 74.9 ng/mL in data set [3] (plasma, 7.5 mg/kg, P.O. 7.5 mg/kg, read-out: Concentration in plasma, Serum Mean). In addition, in [4], the “Aβ42-induced AEP activation” value was “suppressed AEP activation in a dose-dependent manner”. In data set [5], the “Cognitive function in the Y maze” value is on record as “significantly improved”. Besides, the “Aβ42 level in brain, ELISA” value in [6] was “significantly reduced”. Moreover, the solubility – broadly, how much of the substance goes into solution per volume – in [7] (aqueous buffer, pH 7.4, read-out: Solubility (pH, media)) worked out at 2450 µg/mL; in [7] (pH 7.4, aqueous buffer, pH7.4, read-out: Solubility (pH, media)), 6.25 mM. Also, the Papp A→B (commonly the apparent permeability from the apical to the basolateral side of a cell layer) in data set [8] (a-b, first value in brackets) was 0.568 ×10⁻⁶ cm/s. The apparent permeability from basolateral to apical (Papp B→A) (usually how fast a substance crosses the layer from the basolateral side) in [8] (b-a, second value in brackets) is 61.9 ×10⁻⁶ cm/s. The hepatocyte CLint (in general, the rate of metabolic loss divided by the concentration) in data set [9] was 22 µL/min/1e6 cells. In data set [9] (read-out: Stability-Hepatocytes T1/2), the half-life came out at 1.05 h.
